From patent US9353072B2, “Antimicrobial substituted thiazoles and methods of use” (Purdue Research Foundation, priority 2012, dated 2016)
In brackets after ≈: the same amount, converted by molar mass. Entries after “also recorded” stand apart in the source; their conditions may differ.

Key:
[1] = system: MRSA ATCC 700699 (NRS1, VISA); assay: MIC/MBC broth microdilution, NRS1 (ATCC 700699); format: cell-based; conditions: Staphylococcus aureus; Table 2; MRSA ATCC 700699; read-out: Minimum Inhibitory Concentration
Method in brief: (§1)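 Using the CLSI broth microdilution procedure, minimum inhibitory concentrations were determined against the MRSA isolates, each in triplicate.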

VISA LIM 3 (NRS37) = assay: MIC/MBC broth microdilution, NRS37 (VISA LIM 3); format: cell-based; conditions: Staphylococcus aureus; Table 2; VISA LIM 3; read-out: Minimum Inhibitory Concentration
Method in brief: as §1

NRS107 = assay: MIC/MBC broth microdilution, NRS107; format: cell-based; conditions: Staphylococcus aureus, Table 2, read-out: Minimum Inhibitory Concentration
Method in brief: as §1

MRSA USA100 = assay: MIC broth microdilution, MRSA USA100; format: cell-based; conditions: Staphylococcus aureus; Table 2; MRSA USA100; read-out: Minimum Inhibitory Concentration
Method: (§2) Determination of minimum inhibitory concentration (MIC). The MICs of the lead thiazole compound (compound 1a) and nine derivatives tested against all 18 MRSA strains were determined, in triplicate samples, using the broth microdilution method in accordance with the recommendations contained in the CLSI guidelines.

MRSA USA200 = assay: MIC broth microdilution, MRSA USA200; format: cell-based; conditions: Staphylococcus aureus; Table 2; MRSA USA200; read-out: Minimum Inhibitory Concentration
Method: as §2

MRSA NRS384 (USA300) = assay: MIC/MBC broth microdilution, NRS384 (USA300); format: cell-based; conditions: Staphylococcus aureus; Table 2; MRSA USA300; read-out: Minimum Inhibitory Concentration
Method in brief: as §1

MRSA USA500 (NRS385) = assay: MIC/MBC broth microdilution, NRS385 (USA500); format: cell-based; conditions: Staphylococcus aureus; Table 2; MRSA USA500; read-out: Minimum Inhibitory Concentration
Method in brief: as §1

MRSA USA700 = assay: MIC broth microdilution, MRSA USA700; format: cell-based; conditions: Staphylococcus aureus, Table 2, read-out: Minimum Inhibitory Concentration
Method: as §2

MRSA USA1000 = assay: MIC broth microdilution, MRSA USA1000; format: cell-based; conditions: Staphylococcus aureus, Table 2, read-out: Minimum Inhibitory Concentration
Method: as §2

VRSA (VRS10) = assay: MIC/MBC broth microdilution, VRSA (VRS10); format: cell-based, Staphylococcus aureus; conditions: Staphylococcus aureus; Table 2; VRSA; read-out: Minimum Inhibitory Concentration
Method: as §2

[2] = system: murine macrophage cells (J774.A1); assay: In vitro cytotoxicity analysis, MTS assay; format: cell-based; conditions: 16 μM, 24 hours
Method: In vitro cytotoxicity analysis: Compounds were assayed at concentrations of 2 μM, 4 μM, 8 μM, and 16 μM against a macrophage cell line (J774.A1) to determine the potential toxic effect in vitro. Murine macrophage cells were cultured in Dulbeco's Modified Eagle Medium (Sigma-Aldrich, St. Louis, Mo., USA) with 10% Fetal Bovine Serum (USA Scientific, Inc.) at 37° C. with 5% CO2. Controls received DMSO alone at a concentration equal to that in drug-treated cell samples. The cells were incubated with the compounds in a 96-Well Plate at 37° C. and 5.0% CO2 for 24 hours prior to addition of the assay reagent MTS 3-(4,5-dimethylthiazol-2-yl)-5-(3-carboxymethoxyphenyl)-2-(4-sulfophenyl)-2H-tetrazolium) (Promega, Madison, Wis., USA). The reagent measures the succinate dehydrogenase mitochondrial activity as an indicator of cell viability and proliferation. Corrected absorbance readings (actual absorbance readings for each treatment subtracted from background absorbance) were taken using a kinetic ELISA microplate reader (Molecular Devices, Sunnyvale, Calif., USA). The quantity of viable cells after treatment with each compound was expressed as a percentage of the control, DMSO.

NRS108 = assay: MIC broth microdilution, NRS108; format: cell-based; conditions: Staphylococcus aureus, Table 2, read-out: Minimum Inhibitory Concentration
Method: as §2

MRSA USA400 (NRS123) = assay: MIC/MBC broth microdilution, NRS123 (USA400); format: cell-based; conditions: Staphylococcus aureus; Table 2; MRSA USA400; read-out: Minimum Inhibitory Concentration
Method in brief: as §1

NRS194 = assay: MIC/MBC broth microdilution, NRS194; format: cell-based; conditions: Staphylococcus aureus, Table 2, read-out: Minimum Inhibitory Concentration
Method in brief: as §1

MRSA USA1100 = assay: MIC broth microdilution, MRSA USA1100; format: cell-based; conditions: Staphylococcus aureus, Table 2, read-out: Minimum Inhibitory Concentration
Method: as §2

[3] = system: 18 different strains of MRSA and VRSA; assay: MIC broth microdilution, panel of 18 MRSA and VRSA strains (summary statements); format: cell-based, Staphylococcus aureus; conditions: relative to lead compound 1a; number of strains as stated in the sentence
Method: as §2

Structure (SMILES)	MIC [1] [µg/mL]	MIC (VISA LIM 3 (NRS37)) [µg/mL]	MIC (NRS107) [µg/mL]	MIC (MRSA USA100) [µg/mL]	MIC (MRSA USA200) [µg/mL]	MIC (MRSA NRS384 (USA300)) [µg/mL]	MIC (MRSA USA500 (NRS385)) [µg/mL]	MIC (MRSA USA700) [µg/mL]	MIC (MRSA USA1000) [µg/mL]	MIC (VRSA (VRS10)) [µg/mL]	toxicity toward murine macrophage cells [2]	MIC (NRS108) [µg/mL]	MIC (MRSA USA400 (NRS123)) [µg/mL]	MIC (NRS194) [µg/mL]	MIC (MRSA USA1100) [µg/mL]	improvement in the MIC value relative to the lead compound [3]
CCCCCCCc1ccc(-c2nc(C)c(/C(C)=N/NC(=N)N)s2)cc1 [Compound 1e]	0.7 (≈ 1.88 µM)	0.7 (≈ 1.88 µM)	0.7 (≈ 1.88 µM)	1.5 (≈ 4.04 µM)	1.5 (≈ 4.04 µM)	3 (≈ 8.07 µM)	3 (≈ 8.07 µM)	3 (≈ 8.07 µM)	3 (≈ 8.07 µM)	3 (≈ 8.07 µM)	exhibited toxicity; also recorded: toxic	–	–	–	–	–
C/C(=N\NC(=N)N)c1sc(-c2ccc(-c3ccccc3)cc2)nc1C [Compound 12, 2-{1-[2-([1,1′-Biphenyl]-4-yl)-4-methylthiazol-5-yl]ethylidene}hydrazinecarboximid-amide]	0.6 (≈ 1.72 µM)	–	–	2.4 (≈ 6.87 µM)	–	1.2 (≈ 3.43 µM)	1.2 (≈ 3.43 µM)	0.6 (≈ 1.72 µM)	–	1.2 (≈ 3.43 µM)	none were observed to be toxic	2.4 (≈ 6.87 µM)	0.6 (≈ 1.72 µM)	1.2 (≈ 3.43 µM)	0.6 (≈ 1.72 µM)	two- to four-fold improvement
